Reference: patent US9044478B2, “Use of 1,4-bis (3-aminoalkyl) piperazine derivatives in the treatment of neurodegenerative diseases” (INSTITUT NATIONAL DE LA SANTE ET DE LA RECHERCHE MEDICALE, priority 2004, dated 2015)

Assays:
Aβ1-42 = test: Aβ 1-42 of the cell supernatant quantified by ELISA (Innotest β-Amyloid1-42); format: cell-based, human
Procedure: (§1) The human neuroblastoma cell line SH-SYSY were cultured in Dulbecco's modified Eagle medium supplemented with 10% fetal calf serum, 2 mM L-glutamine, 1 mM non-essential amino-acids, penicillin/streptomycin (Invitrogen SARL, Cergy Pontoise, France) and 200 μg/ml G418 (to select for APP expression) in a 5% CO2 humidified incubator at 37° C. APP751 cDNA with the Swedish mutation (APP^Sw) was subcloned into stably eukaryotic expression vector pcDNA3 (Invitrogen), allowing for a G418 (Invitrogen) selection of stable clones. This APP cDNA was stably transfected into SH-SY5Y cells using the ethyleneimine polymer ExGen 500 (Euromedex) according to the manufacturer's instructions.
(§2) Cells were plated into 6-well plates 24 h before drug exposure. […] After treatment, the medium was collected for the dosage of Aβ1-42. Cells were washed with phosphate-buffered saline and scraped with a policeman rubber in 70 μl of Laemmli sample buffer with protease inhibitors (Complete Mini Roche Molecular Biochemicals, Meylan, France), sonicated and heat-treated for 5 min at 100° C. Protein concentration was established using the PlusOne™ 2-D Quant Kit (Amersham Biosciences, Orsay, France) and samples were kept at −80° C. until used.
The collected medium was spun at 200 g to eliminate the cell debris and Aβ1-42 concentration was determined using the Innotest® β-Amyloid1-42 (Innogenetics, Ghent, Belgium) according to the manufacturer's instructions.
(§3) SKNSH SY5Y transfected cells were grown in the presence of drugs at different concentrations, for example at 1 μM or 5 μM, then cells were harvested and analyzed for their APP-CTF content, using the western-blot approach, while Aβ 1-42 of the cell supernatant Was quantified by ELISA, as described in material and methods. For each compound, normal levels have the arbitrary value of 1. For example, if one APP-CTF is increased 10 times, the value is reported as 10. For Aβ peptide, if decreased of 60%, the value is reported as 0.4 (40% remaining).

APP-CTFs = APP-CTFs content of APPSw-transfected SH-SY5Y cells by western blot; format: cell-based, human; design: key to β (APP-CTF β stub level, normal level = 1) / α (APP-CTF α stub level, normal level = 1) / γ (APP-CTF γ stub level, normal level = 1) / CTFs (APP-CTFs level, normal level = 1): fold of normal level, normal = 1
Procedure: as §1, §2
The APPCter-C17 antibody is raised against the last 17 amino acids of the human APP sequence (Sergeant, N., David, J. P., Champain, D., Ghestem, A., Wattez, A., and Delacourte, A. (2002) J Neurochem 81, 663-672). This polyclonal antibody detects all APP-CTFs fragments. The tubulin signal was used as a loading control and to normalize the APP-CTFs content. Anti-mouse or anti-rabbit secondary antibodies coupled with horseradish peroxidase were purchased at SIGMA Immunochemicals (Saint Quentin Fallavier, France).
The same quantity of total proteins (20 μg/lane) was loaded on a 16.5% Tris-tricine polyacrylamide gel. Tris-tricine SDS-polyacrylamide gel electrophoresis (PAGE) was performed following the procedure of Schagger and Von Jagow (1987) (Schagger, H., and von Jagow, G. (1987) Anal Biochem 166, 368-379) with a protean II Xi Cell (Bio-Rad, Marnes la coquette, France). Proteins were transferred to nitrocellulose membrane at 2.5 mA/cm^2 per gel using the SemiDry Novablot Transfer system (Amersham Biosciences, Orsay, France), according to the manufacturer's instructions. Proteins were reversibly stained with Ponceau Red to check the quality of the transfer. Membranes were blocked in 25 mM Tris-HCl pH 8.0, 150 mM NaCl, 0.1% Tween-20 (v/v) and 5% (w/v) of skimmed milk for 30 min. Membranes were incubated overnight at 4° C. with appropriate dilutions of the primary antibodies, and incubated for 1 h at room temperature with secondary antibody.
Western blot films were digitized using an UMax scanner calibrated for optical densities (Amersham Biosciences). The Image-MASTER 1D ELITE Software (Amersham Biosciences) was used to quantify the signal, and data were collected using Excel Software (Microsoft, LesUlis, France).
as §3

[1] = Solubility in the BBB screening; format: physicochemical
Excerpt: (§4) The transport of drug was good for example 16 and moderate for example 23. Indeed, the permeability coefficients obtained for example 16 (2.26×10^−3 cm/min) and example 23 (1.81×10^−3 cm/min) indicate that these compounds cross the BBB and are good candidates as CNS drugs.

[2] = tested on: endothelial cell monolayer; test: Toxicity on the endothelial cell monolayer of the BBB model; format: cell-based; conditions: concentration of 10 μM
Excerpt: (§5) The ability of some compounds to cross the Blood-Brain Barrier (BBB) has been evaluated, using an in vitro model (Cecchelli, R., et al., In vitro model for evaluating drug transport across the blood-brain barriers. Adv Drug Deliv Rev, 1999. 36(2-3): p. 165-178). The described model consists in brain capillary endothelial cells co-cultured with glial cells, thereby closely mimicking the in vivo conditions (Lundquist, S, and M. Renftel, The use of in vitro cell culture models for mechanistic studies and as permeability screens for the blood-brain barrier in the pharmaceutical industry-background and current status in the drug discovery process. Vascul Pharmacol 2002. 38(6): p. 355-64) and developed by CELLIAL Technologies SA.
as §4

[3] = tested on: brain capillary endothelial cells co-cultured with glial cells; test: In vitro Blood-Brain Barrier model, drug transport; format: in vitro ADME; conditions: for Permeability coefficient: in vitro BBB model
Excerpt: as §5, §4

[4] = greater concentration (5 μM) at 24 hours
[5] = low concentration (1 μM) at 6 hours
[6] = 24 h, 1 μM as printed (fourth column)

1,4-bis{3-[N-n-heptyl)amino]propyl}piperazine [Example 10]
Decrease of Aβ peptide levels compared to the control (FIG. 1) (Aβ1-42; [4]): efficiency is confirmed | Decrease of Aβ peptide levels compared to the control (FIG. 1) (Aβ1-42; [5]): efficient to decrease Aβ peptide levels

Clc1ccc(CNCCCN2CCN(CCCNCc3ccc(Cl)cc3)CC2)cc1 [Example 4]
Efficiency for α and γ-APP-CTFs stubs (APP-CTFs): particularly high efficiency | CTFs (APP-CTFs level, normal level = 1) (APP-CTFs; 6 h, 1 μM): 6 | α (APP-CTF α stub level, normal level = 1) (APP-CTFs; 6 h, 1 μM): 14 | β (APP-CTF β stub level, normal level = 1) (APP-CTFs; 6 h, 1 μM): 0.8 | γ (APP-CTF γ stub level, normal level = 1) (APP-CTFs; 6 h, 1 μM): 9.6 | CTFs (APP-CTFs level, normal level = 1) (APP-CTFs; 6 h, 5 μM): 5 | α (APP-CTF α stub level, normal level = 1) (APP-CTFs; 6 h, 5 μM): 11 | β (APP-CTF β stub level, normal level = 1) (APP-CTFs; 6 h, 5 μM): 1.2 | γ (APP-CTF γ stub level, normal level = 1) (APP-CTFs; 6 h, 5 μM): 5.7 | CTFs (APP-CTFs level, normal level = 1) (APP-CTFs; 24 h, 1 μM (third column)): 3.5 | α (APP-CTF α stub level, normal level = 1) (APP-CTFs; 24 h, 1 μM (third column)): 3.5 | β (APP-CTF β stub level, normal level = 1) (APP-CTFs; 24 h, 1 μM (third column)): 0.8 | γ (APP-CTF γ stub level, normal level = 1) (APP-CTFs; 24 h, 1 μM (third column)): 5.1 | CTFs (APP-CTFs level, normal level = 1) (APP-CTFs; [6]): 65 | α (APP-CTF α stub level, normal level = 1) (APP-CTFs; [6]): 7 | β (APP-CTF β stub level, normal level = 1) (APP-CTFs; [6]): 5 | γ (APP-CTF γ stub level, normal level = 1) (APP-CTFs; [6]): 14.4 | Efficiency for Aβ peptide (FIG. 1) (Aβ1-42): particularly high efficiency | Aβ (Aβ peptide level, normal level = 1; fraction remaining) (Aβ1-42; 6 h, 1 μM): 0.2 | Aβ (Aβ peptide level, normal level = 1; fraction remaining) (Aβ1-42; 6 h, 5 μM): 0 | Aβ (Aβ peptide level, normal level = 1; fraction remaining) (Aβ1-42; 24 h, 1 μM (third column)): 1 | Aβ (Aβ peptide level, normal level = 1; fraction remaining) (Aβ1-42; [6]): 0.1 | Decrease of Aβ peptide levels compared to the control (FIG. 1) (Aβ1-42; [4]): efficiency is confirmed | Decrease of Aβ peptide levels compared to the control (FIG. 1) (Aβ1-42; [5]): efficient to decrease Aβ peptide levels

N^4-(3-{4-[3(diisobutylamino)propyl]piperizano}propyl)-benzimidazol-2-amine [Example 16]
Solubility [1]: soluble | Toxicity on the endothelial cell monolayer [2]: not toxic | Transport of drug across the in vitro BBB [3]: good | Diffusion across the filter membrane coated with collagen and without cells [3]: able to diffuse across the filter membrane | Permeability coefficient [3]: 37.7 ×10⁻⁶ cm/s

N^4-[3-(4-{3-[diisobutylamino]propyl}piperizano)propyl]-4-benzyloxyamine [Example 23]
Solubility [1]: soluble | Toxicity on the endothelial cell monolayer [2]: not toxic | Transport of drug across the in vitro BBB [3]: moderate | Diffusion across the filter membrane coated with collagen and without cells [3]: able to diffuse across the filter membrane | Permeability coefficient [3]: 30.2 ×10⁻⁶ cm/s
